# Data: publication PMC3673541 (2011)
# Columns and labels:
# [1] = test system: Oxytricha Nova quadruplex (DNA, G4) GGGGTTTTGGGG; assay: ITC; conditions: Na+ 100 mM; 10 mM cacodylate, 0.5 mM EDTA, pH 6.8
# [2] = test system: human telomeric DNA (22mer) (DNA, G4) AGGGTTAGGGTTAGGGTTAGGG; assay: ITC; conditions: Na+ 100 mM; 10 mM cacodylate, 0.5 mM EDTA, pH 6.8; one-site model
smiles,measurement,setting,value
NC[C@@H]1O[C@H](O[C@H]2[C@@H](O)[C@H](O[C@@H]3[C@@H](O)[C@H](N)C[C@H](N)[C@H]3O[C@H]3O[C@H](CN)[C@@H](O)[C@H](O)[C@H]3N)O[C@@H]2CO)[C@H](N)[C@@H](O)[C@@H]1O,Ka,[1],(1.8±0.3)×10^5 M^−1
same,Ka,[2],(2.5±0.2)×10^4 M^−1
